Reference: US9174951B2, “Glucose transporter inhibitors” (The Ohio State University Research Foundation, priority 2012, dated 2015)
“Also recorded” adds a separate entry of the source.

Key:
[1] = tested on: MDAMB-468 cells; experiment: MTT cell viability assay, MDAMB-468; assay type: cell-based; conditions: Homo sapiens, MDA-MB-468, 72 h, 10% FBS
Experimental: (§1) Cell Viability Assay. Cell viability was determined using the 3-(4,5-dimethylthiazol-2-yl)-2,5-diphenyltetrazolium bromide (MTT) assay. Cancer cells were seeded at 5000 cells/well and normal cells were seeded at 8000 cells/well in 96-well plates and incubated in 10% FBS-supplemented medium for 24 h. Cells were then treated with individual agents for 72 h. Drug-containing medium was replaced with medium containing MTT (0.5 mg/mL), followed by incubation at 37° C. for 1 h. After removal of medium, the reduced MTT dye in each well was solubilized in 100 μL of DMSO and absorbance at 570 nm was measured.
(§2) Compound 30 was evaluated for antiproliferative activity in panels of different human cancer cells lines, including those of prostate, breast and pancreatic cancers. In all experiments, cells were treated with a range of concentrations of Compound 30 in the presence of 10% fetal bovine serum (FBS). Cell viability was then determined after 72 h of treatment using the 3-(4,5-dimethylthiazol-2-yl)-2,5-diphenyltetrazolium bromide (MTT) assay. […] It is noteworthy that despite this high antiproliferative potency, normal human prostate epithelial cells (PrECs) were resistant to the cytotoxic effect of Compound 30 even at 10 μM.

[2] = tested on: human mammary epithelial cells (HMECs); experiment: MTT cell viability assay, normal mammary epithelial cells; assay type: cell-based; conditions: 72 h, up to 10 μM
From the text: (§3) Cells and Cell Culture. LNCaP prostate cancer cells were obtained from the American Type Culture Collection (Manassas, Va.). Cells were maintained in 10% fetal bovine serum (FBS)-supplemented RPMI 1640 medium (Invitrogen, Carlsbad, Calif.). Normal human mammary epithelial cells (HMEC) and normal human prostate epithelial cells (PrEC) were obtained from Lonza (Walkersville, Md.) and were maintained in Mammary Epithelial Cell Growth Medium (MEGM) and Prostate Epithelial Cell Growth Medium (PrEGM) (Lonza, Walkersville, Md.), respectively.
as §1

[3] = tested on: BxPC3 cells; experiment: MTT cell viability assay, BxPC3; assay type: cell-based; conditions: Homo sapiens, BXPC-3, 72 h, 10% FBS
Experimental: as §1, §2

[4] = tested on: SKBR3 cells; experiment: MTT cell viability assay, SKBR3; assay type: cell-based; conditions: Homo sapiens, SK-BR-3, 72 h, 10% FBS
Experimental: as §1, §2

[5] = tested on: MDA-MB-231 cells; experiment: MTT cell viability assay, MDA-MB-231; assay type: cell-based; conditions: Homo sapiens, 72 h, 10% FBS
Experimental: as §1, §2

[6] = tested on: normal human prostate epithelial cells (PrECs); experiment: MTT cell viability assay, normal prostate epithelial cells; assay type: cell-based; conditions: 72 h, up to 10 μM
From the text: as §3, §1

[7] = tested on: MCF-7 cells; experiment: MTT cell viability assay, MCF-7; assay type: cell-based; conditions: Homo sapiens, MCF7, 72 h, 10% FBS
Experimental: as §1, §2

[8] = tested on: PANC1-GemR (gemcitabine-resistant subline); experiment: MTT cell viability assay, PANC1-GemR; assay type: cell-based; conditions: Homo sapiens, 72 h, 10% FBS, read-out: IC50, viability of PANC1-GemR cells
Experimental: as §1, §2

[9] = tested on: DU-145 cells; experiment: MTT cell viability assay, DU-145; assay type: cell-based; conditions: Homo sapiens, 72 h, 10% FBS
Experimental: as §1, §2

[10] = tested on: Cal-51 cells; experiment: MTT cell viability assay, Cal-51; assay type: cell-based; conditions: Homo sapiens, 72 h, 10% FBS
Experimental: as §1, §2

[11] = tested on: PC-3 cells; experiment: MTT cell viability assay, PC-3; assay type: cell-based; conditions: Homo sapiens, 72 h, 10% FBS
Experimental: as §1, §2

[12] = tested on: PANC1 cell line; experiment: MTT cell viability assay, PANC1; assay type: cell-based; conditions: Homo sapiens, PANC-1, 72 h, 10% FBS, read-out: IC50, viability of PANC1 cells
Experimental: as §1, §2

[13] = tested on: LNCaP cells; experiment: [3H]2-DG glucose uptake assay in LNCaP cells; assay type: cell-based, human
Experimental: Screening of the focused compound library to identify lead glucose uptake inhibitors.
Glucose Uptake Assay. LNCaP cells were seeded in six-well plates (3×10^5 cells/well) for 24 h. […] The cells were lysed in […] lysis buffer (10 mM Tris-HCl pH 8.0, 0.1% SDS) and aliquots were taken for measurement of radioactivity using a scintillation counter (Beckman LS6500).

[14] = tested on: AsPC1 cells; experiment: MTT cell viability assay, AsPC1; assay type: cell-based; conditions: Homo sapiens, 72 h, 10% FBS
Experimental: as §1, §2

In the case of `CC(CN1C(=O)S/C(=C\c2ccc(O)c(C(F)(F)F)c2)C1=O)(CC(F)(F)F)CC(F)(F)F` [Compound 30, 5-(4-Hydroxy-3-trifluoromethyl-benzylidene)-3-[4,4,4-trifluoro-2-methyl-2-(2,2,2-trifluoro-ethyl)-butyl]-thiazolidine-2,4-dione], the IC50 [1] is reported as 1500 nM, the “cytotoxic effect in HMECs” value [2] is reported as “resistant; also recorded: no appreciable cytoxicity; also recorded: no appreciable cytotoxicity” and the IC50 [3] is reported as roughly 7500 nM. The IC50 [4] was 1600 nM, the IC50 [5] was 1900 nM and the “cytotoxic effect in PrECs” value [6] was “resistant; also recorded: no appreciable cytoxicity; also recorded: no appreciable cytotoxicity”. It also gave an IC50 [7] of roughly 700 nM, an IC50 [8] of roughly 2500 nM and an IC50 [9] of 1500 to 1700 nM. The IC50 [10] was 1700 nM, the IC50 [11] was 1500 to 1700 nM and the IC50 [12] was roughly 2500 nM. For the same compound, the IC50 ([13]; Homo sapiens, LNCaP, Krebs-Ringer phosphate buffer, 37° C., 30 min of drug treatment, read-out: IC50 in blocking [3H]2-DG uptake into LNCaP cells) was 2500 nM, the “inhibition of [3H]2-DG uptake into LNCaP cells (screening, in words)” value ([13]; each at 5 μM, 30 min of exposure) was “substantially improved potency relative to compound 5” and the IC50 [14] was roughly 5000 nM.
